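Method: 48-hour compound exposure of cells in 96-well plates, five concentrations, linear interpolation of endpoints. GI50 is the concentration that inhibits growth by half.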 The source made the active and inactive calls. Cut-off read from the data, not from the text of the source: active = GI50 up to about 1.1 µM and inactive = higher. Where a SMILES comes first, the peptide text is derived from it. The star is where a group is joined. X33 = O=C(c1ccc(-c2ccc(Cl)cc2Cl)o1)*
Tests used:
Assay in all cases: DTP human tumour cell line panel, 48 h
[1] = system: HOP-62
[2] = system: EKVX
[3] = system: U-251
[4] = system: RPMI-8226
[5] = system: CAKI-1
[6] = system: HOP-92
[7] = system: SN12C
[8] = system: COLO 205
[9] = system: UO-31
[10] = system: SK-MEL-2
[11] = system: Malme-3M
[12] = system: SK-MEL-5
[13] = system: HCC 2998
[14] = system: SR
[15] = system: OVCAR-8
[16] = system: MCF7
[17] = system: NCI-H23
[18] = system: SF-268
[19] = system: OVCAR-4
[20] = system: MDA-MB-231

Row | Structure (SMILES) | GI50 [1] | GI50 [2] | GI50 [3] | GI50 [4] | GI50 [5] | GI50 [6] | GI50 [7] | GI50 [8] | GI50 [9] | GI50 [10] | GI50 [11] | GI50 [12] | GI50 [13] | GI50 [14] | GI50 [15] | GI50 [16] | GI50 [17] | GI50 [18] | GI50 [19] | GI50 [20]
1 | CCC1CCC2c3c([nH]c4ccc(C)cc34)C3C(=O)N(N(C)C)C(=O)C3C2C1 (stereo not given) | > 27 µM (inactive) | 26.7 µM (inactive) | 19.5 µM (inactive) | 19 µM (inactive) | > 34.4 µM (inactive) | 38.7 µM (inactive) | 17.9 µM (inactive) | 4.36 µM (inactive) | > 75 µM (inactive) | 24.6 µM (inactive) | 1.02 µM (active) | 12.8 µM (inactive) | 35.2 µM (inactive) | 3.17 µM (inactive) | 22.2 µM (inactive) | 3.64 µM (inactive) | > 67.3 µM (inactive) | 7.62 µM (inactive) | 34 µM (inactive) | 72.8 µM (inactive)
2 | C=CCN1C(=O)/C(=C/c2ccc(C)cc2)N=C1SC/C=C/C | > 100 µM (inactive) | 27 µM (inactive) | 27.2 µM (inactive) | 14.5 µM (inactive) | > 100 µM (inactive) | 22.6 µM (inactive) | 28.1 µM (inactive) | 36.5 µM (inactive) | 47.3 µM (inactive) | 24.8 µM (inactive) | 32.1 µM (inactive) | 22.7 µM (inactive) | 41.7 µM (inactive) | 17.2 µM (inactive) | 30.1 µM (inactive) | 29.4 µM (inactive) | 31.1 µM (inactive) | 33.2 µM (inactive) | 41.9 µM (inactive) | 51.5 µM (inactive)
3 | Cc1cc(S(=O)(=O)Nc2nc(Nc3ccc4ccccc4c3)n[nH]2)c(S)cc1Cl | 28.1 µM (inactive) | > 100 µM (inactive) | 39.9 µM (inactive) | > 100 µM (inactive) | 52.8 µM (inactive) | 52.5 µM (inactive) | 48.2 µM (inactive) | 57.8 µM (inactive) | > 100 µM (inactive) | 24 µM (inactive) | 89.7 µM (inactive) | 22.5 µM (inactive) | 61.4 µM (inactive) | > 100 µM (inactive) | 64.3 µM (inactive) | 74.8 µM (inactive) | 43 µM (inactive) | 72.1 µM (inactive) | 79.1 µM (inactive) | 92.9 µM (inactive)
4 | CCN(CC)CCSc1c2cc(OC)ccc2nc2ccc(OC)cc12 | 16.7 µM (inactive) | 9.59 µM (inactive) | 7.94 µM (inactive) | 2.4 µM (inactive) | 7.53 µM (inactive) | 2.19 µM (inactive) | 3.03 µM (inactive) | 1.98 µM (inactive) | 2.37 µM (inactive) | 17 µM (inactive) | 2.75 µM (inactive) | 13.6 µM (inactive) | 13.5 µM (inactive) | 2.43 µM (inactive) | 3.12 µM (inactive) | 2.51 µM (inactive) | 3.3 µM (inactive) | 3.08 µM (inactive) | 6.03 µM (inactive) | 6.53 µM (inactive)
5 | O=[N+]([O-])c1c(Br)cc(Br)c2c1Nc1c(ccc(Cl)c1Cl)S2 | 18.8 µM (inactive) | 16.6 µM (inactive) | 17.9 µM (inactive) | 14.4 µM (inactive) | 16.5 µM (inactive) | 18.7 µM (inactive) | 13.8 µM (inactive) | 11.9 µM (inactive) | 7.91 µM (inactive) | 18.5 µM (inactive) | 13.4 µM (inactive) | 13.6 µM (inactive) | 12.4 µM (inactive) | 5.86 µM (inactive) | 2.79 µM (inactive) | 2.87 µM (inactive) | 14.4 µM (inactive) | 16.3 µM (inactive) | 13.9 µM (inactive) | 13.2 µM (inactive)
6 | c1ccc(C/C(=N\Nc2nc3ccccc3o2)c2ccccn2)cc1 | 0.0354 µM (active) | < 0.01 µM (active) | 0.198 µM (active) | 0.0482 µM (active) | 0.0879 µM (active) | 0.0281 µM (active) | 0.0569 µM (active) | < 0.01 µM (active) | 0.09 µM (active) | 0.929 µM (active) | 0.0233 µM (active) | 0.0769 µM (active) | < 0.0163 µM (active) | 0.0424 µM (active) | 0.0321 µM (active) | < 0.01 µM (active) | 0.0382 µM (active) | 0.0805 µM (active) | < 0.01 µM (active) | 0.126 µM (active)
7 | CCC(C)C(NC(=O)CNC(=O)C(Cc1ccccc1)NC(=O)C1CCCN1C(=O)c1ccc(-c2ccc(Cl)cc2Cl)o1)C(=O)OC (stereo not given) (X33-PFGI-OMe; configuration not given here) | 31.1 µM (inactive) | 24.1 µM (inactive) | 24.5 µM (inactive) | 14.7 µM (inactive) | 31 µM (inactive) | 11.2 µM (inactive) | 19.8 µM (inactive) | 31.6 µM (inactive) | 36.8 µM (inactive) | 60.5 µM (inactive) | 53.7 µM (inactive) | 12.2 µM (inactive) | 21.3 µM (inactive) | 12.5 µM (inactive) | 27.4 µM (inactive) | 20.8 µM (inactive) | 34.1 µM (inactive) | 69.2 µM (inactive) | 28.6 µM (inactive) | 24.7 µM (inactive)

From ChEMBL document CHEMBL1201862, “PubChem BioAssay data set” (2004)
